Laboratory results published in US8933075B2, “Compounds useful as antiviral agents, compositions, and methods of use” (priority 2010, dated 2015).
Where two headings read alike, the source gives them in different places.

Test system: A/Udorn/72 (H3N2) virus
Assay: Plaque assay in MDCK cells: EC50 by reduction of plaque number
Type: cell-based, influenza virus

| Structure (SMILES) | EC50 (MDCK) [nM] | EC50 [nM] |
| --- | --- | --- |
| COCOc1cc(-c2ccc(/C=C3\SC(=S)N(C4CC5CCC4C5)C3=O)o2)cc(OC)c1OCOC (centres unmarked) [Compound 26] | < 100 |  |
| COc1cc(-c2ccc(/C=C3\SC(=S)N(C4C5CC6CC(C5)CC4C6)C3=O)o2)cc(OC)c1OC (centres unmarked) [Compound 1] | < 100 |  |
| Cn1c(-c2ccc(Cl)cc2)cc(CCCO)c1/C=C1\SC(=S)N(C2CC3CCC2C3)C1=O (centres unmarked) [Compound 258] | > 1000 |  |
| COc1cccc(-c2cc(CCCO)c(/C=C3\SC(=S)N(C4C5CC6CC(C5)CC4C6)C3=O)[nH]2)c1 (centres unmarked) [Compound 238] |  | 250 to 1000 |
| O=C1/C(=C/c2sc(-c3ccc(Cl)cc3)cc2C#CCCCO)SC(=S)N1C1CC2CCC1C2 (centres unmarked) [Compound 291] | < 100 |  |
| O=C1/C(=C/c2cc(CCCCCO)c(-c3ccc(Cl)cc3)s2)SC(=S)N1C1C2CC3CC(C2)CC1C3 (centres unmarked) [Compound 283] | < 100 |  |
| COc1cccc(-c2sc(/C=C3\SC(=S)N(C4C5CC6CC(C5)CC4C6)C3=O)cc2C#CCCCO)c1 (centres unmarked) [Compound 289] | < 100 |  |
| COc1cc(OC)cc(-c2cc(/C=C/C(=O)O)c(/C=C3\SC(=S)N(C4C5CC6CC(C5)CC4C6)C3=O)o2)c1 (centres unmarked) [Compound 131] | < 100 |  |
| O=C1/C(=C/c2oc(-c3ccc(F)cc3)cc2CCCCCCO)SC(=S)N1C1CC2CCC1C2 (centres unmarked) [Compound 107] | < 100 |  |
| COc1cccc(-c2cc(C#CCCCO)c(/C=C3\SC(=S)N(C4CC5CCC4C5)C3=O)s2)c1 (centres unmarked) [Compound 292] | < 100 |  |
| O=C1/C(=C/c2cc(C#CCCCO)c(-c3ccc(Cl)cc3)s2)SC(=S)N1C1C2CC3CC(C2)CC1C3 (centres unmarked) [Compound 287] | < 100 |  |
| Cn1c(-c2ccc(Cl)cc2)cc(CCCO)c1/C=C1\SC(=S)N(C2C3CC4CC(C3)CC2C4)C1=O (centres unmarked) [Compound 259] | > 1000 |  |
| O=C1/C(=C/c2oc(-c3ccc(C(F)(F)F)cc3)cc2CCCCCO)SC(=S)N1C1CC2CCC1C2 (centres unmarked) [Compound 337] | < 100 |  |
| COc1cccc(-c2cc(CCCCCO)c(/C=C3\SC(=S)N(C4CC5CCC4C5)C3=O)o2)c1 (centres unmarked) [Compound 348] | < 100 |  |
| COc1cc(OC)cc(-c2cc(CCCOC(=O)[C@@H](NC(=O)OC(C)(C)C)c3ccccc3)c(/C=C3\SC(=S)N(C4CC5CCC4C5)C3=O)o2)c1 (some centres unmarked) [Compound 146] | < 100 |  |
| COc1cc(O)cc(-c2cc(CCCNC(=O)[C@@H](N)CCCN=C(N)N)c(/C=C3\SC(=S)N(C4CC5CCC4C5)C3=O)o2)c1 (some centres unmarked) [Compound 175] | < 100 |  |

| Structure (SMILES) | EC50 (MDCK) [nM] | EC50 [nM] |
| --- | --- | --- |
| COc1cccc(-c2cc(CCCCCO)c(/C=C3\SC(=S)N(C4CC5CCC4C5)C3=O)n2C)c1 (centres unmarked) [Compound 262] | > 1000 |  |
| CC(=O)OCCCc1cc(-c2ccc(Cl)cc2)[nH]c1/C=C1\SC(=S)N(C2CC3CCC2C3)C1=O (centres unmarked) [Compound 231] | < 100 |  |
| COc1cc(OC)cc(-c2cc(CCCN3CCNCC3)c(/C=C3\SC(=S)N(C4CC5CCC4C5)C3=O)o2)c1 (centres unmarked) [Compound 188] | < 100 |  |
| Nc1ccc(-c2ccc(/C=C3\SC(=S)N(C4C5CC6CC(C5)CC4C6)C3=O)o2)cc1 (centres unmarked) [Compound 12] | < 100 |  |
| O=C1/C(=C/c2oc(-c3cccc(F)c3)cc2CCCCCO)SC(=S)N1C1CC2CCC1C2 (centres unmarked) [Compound 343] | < 100 |  |
| O=C1/C(=C/c2ccc(-c3ccc(O)cc3)o2)SC(=S)N1C1C2CC3CC(C2)CC1C3 (centres unmarked) [Compound 15] | < 100 |  |
| O=C1/C(=C/c2sc(-c3ccc(Cl)cc3)cc2CCCO)SC(=S)N1C1CC2CCC1C2 (centres unmarked) [Compound 276] | < 100 |  |
| COc1cc(OC)cc(-c2cc(CCCOC(C)=O)c(/C=C3\SC(=S)N(C4CC5CCC4C5)C3=O)o2)c1 (centres unmarked) [Compound 97] | < 100 |  |
| O=C1/C(=C/c2oc(-c3ccc(F)cc3)cc2CCCCO)SC(=S)N1C1CC2CCC1C2 (centres unmarked) [Compound 115] | < 100 |  |
| COc1cccc(-c2cc(CCCO)c(/C=C3\SC(=S)N(C4CC5CCC4C5)C3=O)n2C)c1 (centres unmarked) [Compound 264] | 250 to 1000 |  |
| O=C1/C(=C/c2c[nH]c3ccccc23)SC(=S)N1C1C2CC3CC(C2)CC1C3 (centres unmarked) [Compound 215, 3-adamantan-2-yl-5-(1H-indol-3-ylmethylene)-2-thioxo-thiazolidin-4-one] | < 100 |  |
| COc1cccc(-c2c(C#CCCCOC(=O)[C@H](CC(N)=O)NC(=O)OC(C)(C)C)cc(/C=C3\SC(=S)N(C4C5CC6CC(C5)CC4C6)C3=O)n2C)c1 (some centres unmarked) [Compound 270] | < 100 |  |
| COc1ccc(-c2ccc(/C=C3\SC(=S)N(C4CC5CCC4C5)C3=O)o2)cc1OCC(=O)N[C@@H](Cc1cnc[nH]1)C(=O)O (some centres unmarked) [Compound 82] | < 100 |  |
| COc1cc(OC)cc(-c2cc(CCCOC(=O)[C@H](CCCNC(=O)OC(C)(C)C)NC(=O)OC(C)(C)C)c(/C=C3\SC(=S)N(C4CC5CCC4C5)C3=O)o2)c1 (some centres unmarked) [Compound 139] | < 100 |  |
| COc1cc(OCC(=O)OC(C)(C)C)cc(-c2ccc(/C=C3\SC(=S)N(C4CC5CCC4C5)C3=O)o2)c1 (centres unmarked) [Compound 39] | < 100 |  |
| O=C1/C(=C/c2oc(-c3ccc(F)cc3)cc2CCCCCO)SC(=S)N1C1C2CC3CC(C2)CC1C3 (centres unmarked) [Compound 106] | < 100 |  |
